Measurements reported in US6951857B2, “6-Azauracil derivatives as IL-5 inhibitors” (priority 1997, dated 2005).

Legend:
IL-5 production = test: In vitro inhibition of IL-5 production in human blood; type: cell-based; conditions: test dose 1×10^−6 M; human whole blood stimulated with phytohemagglutinin, 48 hours, ELISA
Procedure: In Vitro Inhibition of IL-5 Production in Human Blood
Human Whole Blood Stimulation
Peripheral blood from healthy male donors was drawn into heparinized syringes (12.5 U heparin/ml). Blood samples were three-fold diluted in RMPI 1640 medium (Life Technologies, Belgium) supplemented with 2 mM L-glutamine, 100 U/ml penicillin and 100 μg/ml streptomycin, and 300 μl fractions were distributed in 24-well multidisc plates. Blood samples were preincubated (60 minutes at 37° C.) in a humidified 6% CO2-atmosphere with 100 μl of drug solvent (final concentration 0.02% dimethylsulfoxide in RPMI 1640) or with 100 μl of an appropriate dose of test compound before being stimulated by the addition of 100 μl of phytohemagglutinin HA17 (Murex, UK) at a final concentration of 2 μg/ml. After 48 hours, cell-free supernatant fluids were collected by centrifugation and stored at −70° C. until tested for the presence of IL-5.
IL-5 measurements were conducted as described in Van Wauwe et al. (1996, Inflamm Res, 45, 357-363) on page 358 using ELISA.
Table 8 lists the percentage inhibition of IL-5 production (column “% inhibition”) at a test dose of 1×10^−6 M, or in case the percentage inhibition is marked with an “*” 1×10^−5 M, for the compounds of the present invention including compounds of formula (I) which have been disclosed in U.S. Pat. No. 4,631,278 (Ref. A) or U.S. Pat. No. 4,767,760 (Ref: B) as summarized in table 7.

Compound | inhibition at 1 µM (IL-5 production) | melting point
CC(C#N)(c1ccc(Cl)cc1)c1c(Cl)cc(-n2ncc(=O)[nH]c2=O)cc1Cl (racemic) [1.11, (±)-2,6-dichloro-α-(4-chlorophenyl)-4-(4,5-dihydro-3,5-dioxo-1,2,4-triazin-2(3H)-yl)-α-methylbenzeneacetonitrile] | 12% | 
N#CC(c1ccc(Cl)c(C(F)(F)F)c1)c1cc(-n2ncc(=O)[nH]c2=O)ccc1Cl (stereo not shown) [1.37] | 12% | 
O=C(c1nc2ccccc2s1)C(c1ccc(Cl)cc1)c1ccc(-n2ncc(=O)[nH]c2=O)cc1Cl (racemic) [1.20, (±)-2-[4-[2-(2-benzothiazolyl)-1-(4-chlorophenyl)-2-oxoethyl]-3-chlorophenyl]-1,2,4-triazin-3,5(2H,4H)-dione] | 80% | 
CN(C)CCCC(C#N)(c1ccc(Cl)cc1)c1ccc(-n2ncc(=O)[nH]c2=O)cc1Cl (racemic) [1.58, (±)-2-chloro-α-(4-chlorophenyl)-4-(4,5-dihydro-3,5-dioxo-1,2,4-triazin-2(3H)-yl)-α-[3-(dimethylamino)propyl]-benzeneacetonitrile] | 28% | 140 °C
N#CC(c1ccc(Cl)cc1)c1ccc(-n2ncc(=O)[nH]c2=O)cc1 (stereo not drawn) [1.41, α-(4-chlorophenyl)-4-(4,5-dihydro-3,5-dioxo-1,2,4-triazin-2(3H)-yl) benzeneacetonitrile] | 13% | 206.3 °C
CC(C(N)=S)(c1ccc(Cl)cc1)c1ccc(-n2ncc(=O)[nH]c2=O)cc1Cl (racemic) [1.21, (±)-2-chloro-α-(4-chlorophenyl)-α-methyl-4-(4,5-dihydro-3,5-dioxo-1,2,4-triazin-2(3H)-yl)benzeneethanethioamide] | 33% | 
CON(C)C(=O)C(c1ccc(Cl)cc1)c1ccc(-n2ncc(=O)[nH]c2=O)cc1Cl (racemic) [1.6, (±)-2-chloro-α-(4-chlorophenyl)-N-methoxy-N-methyl-4-(4,5-dihydro-3,5-dioxo-1,2,4-triazin-2(3H)-yl)benzeneacetamide] | 49% | 
CC(C#N)(c1ccc(Cl)c(C(F)(F)F)c1)c1cccc(-n2ncc(=O)[nH]c2=O)c1Cl (racemic) [1.36, (±)-4-chloro-α-[2-chloro-3-(4,5-dihydro-3,5-dioxo-1,2,4-triazin-2(3H)-yl)phenyl]-α-methyl-3-(trifluoromethyl)benzeneacetonitrile] | 44% | 
CNC(=O)C(C)(c1ccc(Cl)cc1)c1ccc(-n2ncc(=O)[nH]c2=O)cc1Cl (racemic) [1.14, (±)-2-chloro-α-(4-chlorophenyl)-4-(4,5-dihydro-3,5-dioxo-1,2,4-triazin-2(3H)-yl)-α,N-dimethylbenzeneacetamide] | 9% | 
CC(C#N)(c1ccc(Cl)c(C(F)(F)F)c1)c1cc(-n2ncc(=O)[nH]c2=O)ccc1Cl (stereo not shown) [1.35] | 33% | 
CC(C#N)(c1ccc(Cl)c(C(F)(F)F)c1)c1c(Cl)cc(-n2ncc(=O)[nH]c2=O)cc1Cl (racemic) [1.7, (±)-2,6-dichloro-α-[4-chloro-3-(trifluoromethyl)phenyl]-4-(4,5-dihydro-3,5-dioxo-1,2,4-triazin-2(3H)-yl)-α-methylbenzeneacetonitrile] | 92% | 
